Consider 25 compounds from US20080293712A1, “Benzo[C][2,7]Naphtyridine Derivatives, Methods of Making Thereof and Methods of Use Thereof” (WYETH, priority 2007, published 2008).

Molecules are shown by their SMILES. Some results are limits rather than exact numbers.

The assay addresses T1, PDK-1 (Homo sapiens, UniProt O15530).
T1 sequence (O15530 1-556): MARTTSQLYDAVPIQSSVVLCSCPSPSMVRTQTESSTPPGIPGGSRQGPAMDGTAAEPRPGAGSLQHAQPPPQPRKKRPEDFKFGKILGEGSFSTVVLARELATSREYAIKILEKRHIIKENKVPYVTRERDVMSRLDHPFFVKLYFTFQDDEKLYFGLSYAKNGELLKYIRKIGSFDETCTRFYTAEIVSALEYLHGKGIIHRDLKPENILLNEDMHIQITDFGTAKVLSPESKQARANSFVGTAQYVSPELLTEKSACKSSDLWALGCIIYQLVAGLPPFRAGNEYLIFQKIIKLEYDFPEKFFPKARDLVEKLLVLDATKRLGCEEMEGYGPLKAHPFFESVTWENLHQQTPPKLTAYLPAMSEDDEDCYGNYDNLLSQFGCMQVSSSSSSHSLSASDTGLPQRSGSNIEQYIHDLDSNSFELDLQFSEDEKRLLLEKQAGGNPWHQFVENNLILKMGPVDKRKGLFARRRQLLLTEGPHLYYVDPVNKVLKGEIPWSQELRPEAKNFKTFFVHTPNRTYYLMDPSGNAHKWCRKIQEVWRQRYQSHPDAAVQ
Briefly: PDK-1 kinase inhibition ELISA assay (phosphorylation of His6-tagged SGK1 S422D by PDK-1). As to conditions: PDK-1 ELISA, Table 11; read-out: Average IC50. It is filed as biochemical. Background: An ELISA detects its analyte on a solid surface through an enzyme-linked reagent.
The IC50 is the concentration needed to halve the response being measured. Turning to `COc1cc2ncc3c(N)nc(-c4cncc(OC[C@@H](N)CO)c4)cc3c2cc1OC` [Ib-10, (2S)-2-amino-3-{[5-(4-amino-8,9-dimethoxybenzo[c]-2,7-naphthyridin-2-yl)pyridin-3-yl]oxy}propan-1-ol], the IC50 turned out to be 6 nM.
To `COc1cc2ncc3c(N)nc(-c4cncc(OCCN)c4)cc3c2cc1OC` [Ib-11, 2-(5-(2-aminoethoxy)pyridin-3-yl)-8,9-dimethoxybenzo [c][2,7]naphthyridin-4-amine] belongs 5 nM; to `COc1cc2ncc3c(N)nc(-c4cncc(OC[C@@H](N)Cc5c[nH]c6ccccc56)c4)cc3c2cc1OC` [Ib-13, 2-(5-{[(2S)-2-amino-3-(1H-indol-3-yl)propyl]oxy}pyridin-3-yl)-8,9-dimethoxybenzo[c]-2,7-naphthyridin-4-amine], 6 nM.
As for `CC[C@H](N)COc1cncc(-c2cc3c(cnc4cc(OC)c(OC)cc43)c(N)n2)c1` [Ib-14, 2-(5-{[(2S)-2-aminobutyl]oxy}pyridin-3-yl)-8,9-dimethoxybenzo[c]-2,7-naphthyridin-4-amine], the figure is 6 nM; as for `COc1cc2ncc3c(N)nc(-c4cncc(Br)c4)cc3c2cc1OC` [Ib-15, 2-(5-bromopyridin-3-yl)-8,9-dimethoxybenzo[c]-2,7-naphthyridin-4-amine], 66 nM.
To `COc1cc2ncc3c(N)nc(-c4cncc(OC[C@@H](Cc5ccccc5)NC=O)c4)cc3c2cc1OC` [Ib-16, N-((1R)-2-{[5-(4-amino-8,9-dimethoxybenzo[c]-2,7-naphthyridin-2-yl)pyridin-3-yl]oxy}-1-benzylethyl)formamide] belongs 38 nM; to `CC[C@@H](N)COc1cncc(-c2cc3c(cnc4cc(OC)c(OC)cc43)c(N)n2)c1` [Ib-18, 2-(5-{[(2R)-2-aminobutyl]oxy}pyridin-3-yl)-8,9-dimethoxybenzo[c]-2,7-naphthyridin-4-amine], 2 nM.
For the compound `COc1cc2ncc3c(N)nc(-c4cncc(OC[C@@H](N)Cc5ccc(N)cc5)c4)cc3c2cc1OC` [Ib-19, 2-(5-{[(2S)-2-amino-3-(4-aminophenyl)propyl]oxy}pyridin-3-yl)-8,9-dimethoxybenzo[c]-2,7-naphthyridin-4-amine], the IC50 amounted to 81 nM.
As for `COc1cc2ncc3c(N)nc(-c4cncc(OC[C@@H](N)CN5CCN(c6ccccn6)CC5)c4)cc3c2cc1OC` [Ib-20, 2-(5-{[(2S)-2-amino-3-(4-pyridin-2-ylpiperazin-1-yl)propyl]oxy}pyridin-3-yl)-8,9-dimethoxybenzo[c]-2,7-naphthyridin-4-amine], the figure is 66 nM; as for `CCN(Cc1ccncc1)C[C@H](N)COc1cncc(-c2cc3c(cnc4cc(OC)c(OC)cc43)c(N)n2)c1` [Ib-21, (2S)-3-{[5-(4-amino-8,9-dimethoxybenzo[c]-2,7-naphthyridin-2-yl)pyridin-3-yl]oxy}-N1-ethyl-N1-(pyridin-4-ylmethyl)propane-1,2-diamine], 7 nM; as for `COc1cc2ncc3c(N)nc(-c4cncc(C#CCN(C)[C@H](C)Cc5ccccc5)c4)cc3c2cc1OC` [Ib-22, 8,9-Dimethoxy-2-[5-(3-{methyl[(1R)-1-methyl-2-phenylethyl]amino}prop-1-yn-1-yl)pyridin-3-yl]benzo[c]-2,7-naphthyridin-4-amine], greater than 100 nM.
To `COc1cc2ncc3c(N)nc(-c4cccnc4C)cc3c2cc1OC` [Ib-60] belongs 532 nM; to `COc1cc2ncc3c(N)nc(N(C)Cc4cccnc4)cc3c2cc1OC` [Ib-64, 8,9-dimethoxy-N^2-methyl-N^2-(pyridin-3-ylmethyl)benzo[c]-2,7-naphthyridine-2,4-diamine], 3580 nM.
Regarding `COc1cc2ncc3c(N)nc(N4CC[C@@H](O)C4)cc3c2cc1OC` [Ib-65, (3R)-1-(4-amino-8,9-dimethoxybenzo[c]-2,7-naphthyridin-2-yl)pyrrolidin-3-ol], the IC50 is 4610 nM.
As for `COc1cc2ncc3c(N)nc(N4CC[C@@H](N(C)C)C4)cc3c2cc1OC` [Ib-66, 2-[(3R)-3-(dimethylamino)pyrrolidin-1-yl]-8,9-dimethoxybenzo[c]-2,7-naphthyridin-4-amine], the figure is 4970 nM.
To `COc1cc2ncc3c(N)nc(N4CC[C@H](N(C)C)C4)cc3c2cc1OC` [Ib-67, 2-[(3S)-3-(dimethylamino)pyrrolidin-1-yl]-8,9-dimethoxybenzo[c]-2,7-naphthyridin-4-amine] belongs 9640 nM; to `COc1cc2ncc3c(N)nc(N4CC[C@H](O)C4)cc3c2cc1OC` [Ib-68, (3S)-1-(4-amino-8,9-dimethoxybenzo[c]-2,7-naphthyridin-2-yl)pyrrolidin-3-ol], 4120 nM; to `CCNCCOc1cncc(-c2cc3c(cnc4cc(OC)c(OC)cc43)c(N)n2)c1` [Ib-73, 2-(5-(2-(ethylamino)ethoxy)pyridin-3-yl)-8,9-dimethoxybenzo[c][2,7]naphthyridin-4-amine], 46.5 nM.
`COc1cc2ncc3c(N)nc(-c4cccc(C(=O)O)c4)cc3c2cc1OC` [Ib-76, 3-(4-amino-8,9-dimethoxybenzo[c][2,7]naphthyridin-2-yl)benzoic acid]: the IC50 is 524 nM.
For `CCCCN(C[C@H](N)COc1cncc(-c2cc3c(cnc4cc(OC)c(OC)cc43)c(N)n2)c1)S(=O)(=O)c1ccccc1` [Ib-77, N-[(2S)-2-amino-3-{[5-(4-amino-8,9-dimethoxybenzo[c][2,7]naphthyridin-2-yl)pyridin-3-yl]oxy}propyl]-N-butylbenzenesulfonamide], the IC50 stood at 21 nM.
To `COc1cc2ncc3c(N)nc(-c4cncc(OC[C@@H](N)CN(C)S(=O)(=O)c5ccccc5)c4)cc3c2cc1OC` [Ib-79, N-[(2S)-2-amino-3-{[5-(4-amino-8,9-dimethoxybenzo[c][2,7]naphthyridin-2-yl)pyridin-3-yl]oxy}propyl]-N-methylbenzenesulfonamide] belongs 11 nM; to `COc1cc2ncc3c(N)nc(-c4cncc(OC[C@@H](N)CNc5ccccc5)c4)cc3c2cc1OC` [Ib-80, (2S)-3-{[5-(4-amino-8,9-dimethoxybenzo[c][2,7]naphthyridin-2-yl)pyridin-3-yl]oxy}-N^1-phenylpropane-1,2-diamine], 3 nM; to `COc1cc2ncc3c(N)nc(-c4cncc(OC[C@@H](N)CNc5ccc(C)c(F)c5)c4)cc3c2cc1OC` [Ib-81, (2S)-3-{[5-(4-amino-8,9-dimethoxybenzo[c][2,7]naphthyridin-2-yl)pyridin-3-yl]oxy}-N1-(3-fluoro-4-methylphenyl)propane-1,2-diamine], 22 nM.
To `COc1cc2ncc3c(N)nc(-c4cncc(OC[C@@H](N)Cn5ccc(=N)cc5)c4)cc3c2cc1OC` [Ib-82, 2-(5-{[(2S)-2-amino-3-(4-iminopyridin-1(4H)-yl)propyl]oxy}pyridin-3-yl)-8,9-dimethoxybenzo[c][2,7]naphthyridin-4-amine] belongs 92 nM; to `COc1cc2ncc3c(N)nc(-c4cncc(OC[C@@H](N)CN(C)c5cccc(F)c5)c4)cc3c2cc1OC` [Ib-83, (2S)-3-{[5-(4-amino-8,9-dimethoxybenzo[c][2,7]naphthyridin-2-yl)pyridin-3-yl]oxy}-N1-(3-fluorophenyl)-N1-methylpropane-1,2-diamine], 5 nM.
